Laboratory results from patent publication US8592446B2, “[1,10]-phenanthroline derivatives for the treatment of neurodegenerative or haematological diseases” (Noscira, S.A., priority 2007, dated 2013).
Like-named read-outs stand apart in the source and are kept apart here.

What was measured:
[1] = Screening pharmacokinetic study, plasma and brain (LC-MS/MS); assay type: in vivo, mice (C57BL6/J); settings: mice; for Kp / bioavailability / Tmax / half-life / AUC / Cmax: male, C57BL6/J, mouse; for Kp: brain and plasma
Experimental: The objective of this study is to evaluate the oral bioavailability and the plasmatic and brain pharmacokinetic parameters after oral and intravenous administration, thus determining if compounds of formula (I) are able to cross the blood brain barrier (BBB). […] Each compound was solved in appropriate excipients. In the case of oral administration, compound was administered by means of an oral gavage coupled to a syringe. In the intravenous administration animals, the test item was administered by a single injection with a syringe coupled to a 30 G needle.
Two animals were sacrificed (according to internal SOPs and following animal handling and welfare guidelines) at each selected extraction times (i.e. 30 min, 1 h, 2 h, 4 h, 6 h, 8 h and 24 hours after administration), and from each animal, both brain and blood samples were obtained. Plasma was extracted by centrifugation of the blood samples. Each sample time represents two male mice from which samples were obtained.
The method for the analysis of plasma and brain samples involved isolation of the analyte from the biological matrix by protein precipitation or solid-phase extraction followed by analysis using LC-MS/MS. Limits of quantification for these compounds were in the order of 2-10 ng/mL. The software Winnonlin professional version 5.2 was used for the calculation of pharmacokinetic parameters.
In the following tables, the abbreviations have the meaning indicated below: • AUC=Area under the curve • T1/2=Half-life • Tmax=the time after administration of a drug when the maximum plasma concentration is reached; when the rate of absorption equals the rate of elimination • Cmax=maximum plasma concentration of the drug • V. Adm. and Vol. Adm.=volume of administration

[2] = test system: SH-SY5Y cells; experiment: Neuroprotection against Aβ25-35 toxicity (LDH assay); assay type: cell-based; settings: Homo sapiens, pre-treated 1 hour, 200 μM Aβ25-35 24 hours, read-out: Protect. beta-Amyloid25-35 (minimum concentration showing neuroprotection)
Experimental: In order to evaluate potential neuroprotection of compounds, SH-SY5Y cells, cultured in 96-well plates, were pre-treated for 1 hour with the compound at different concentrations and then exposed 24 hours to 200 μM Aβ25-35 (Neosystem) to induce extensive oxidative stress and cell death. The ability of the compound of protecting against this toxicity is then evaluated by measuring intracellular LDH, using the colorimetric LDH assay.
It is widely accepted that the neurotoxic activity of Aβ resides within amino acids 25-35 (see e.g. Yankner B A et al., (1990) Neurotrophic and neurotoxic effects of amyloid β protein: reversal by tachykinin neuropeptides; Science 250:279-282).

[3] = test system: SH-SY5Y human neuroblastoma cells; experiment: Protection against 6-OHDA-induced cell death, condition A (10% foetal bovine serum); assay type: cell-based; settings: preincubated 2 hours, 6-OHDA 75 μM 16 hours, read-out: Protect. 6-OHDA (+ FBS) (minimum concentration with neuroprotective effect)
Excerpt: The aim of this experiment is to determine the protective effect of the compounds of formula (1) against the toxicity caused by 6-OHDA. This toxin induces a cell death similar to which occurs in Parkinson's disease, destroying dopaminergic neurons (“MPTP and 6-hydroxydopamine-induced neurodegeneration as models for Parkinson's disease: neuroprotective strategies”; Grunblatt E, et al.; J Neurol. 2000 Apr; 247 Suppl 2:II95-102).
Two or three days before the experiment, the SH-SY5Y human neuroblastoma cells are seeded into 96-well culture plate at a density of 10^4 cells/well. Cells are exposed to the treatment with 6-OHDA and, finally, cell death is measured by LDH quantification. As positive control we used NAC.
• A) NAC and the compound of formula (I) are preincubated during 2 hours before the treatment with 6-OHDA 75 μM during 16 hours. The assay is performed in medium containing 10% Foetal bovine serum.
For each compound the minimum concentration of compound of formula (I) at which a neuroprotective effect is shown.

[4] = Chelating ability with Cu (II) (absorbance spectra); assay type: physicochemical; settings: for Ability to complex Cu (II) (spectrum of mixture vs sum of individual spectra): 200 μM, PBS 10 mM, pH 7.4, FIG. 6
Experimental: FIG. 6 depicts the absorbance spectra of the mixture of Cu (II) and each of the quelating ligands (Compound 4, Compound 7, Compound 8). Concentration of Cu(II) and all compounds 200 μM, PBS 10 mM, pH 7.4.
FIG. 7 is the absorbance spectra of the complex Cu(II)-Compound 10. Concentration 200 μM, PBS 10 mM, pH 7.4.
Therefore, it may be observed that the compounds of formula (I) have a high affinity to Fe (II) in comparison to the rest of metalic ions tested.

[5] = Chelating ability with Fe (III) (absorbance spectra); assay type: physicochemical; settings: PBS 10 mM, pH 7.4, ligand and Fe(III) 200 μM, FIG. 1
Experimental: FIG. 1 is an absorbance spectrum of compounds 4, 7, 8 and 10 in absence and presence of Fe(III). PBS 10 mM, pH 7.4. Concentration of ligand and Fe(III), 200 μM.
Only one line is observed, as the spectra are overlapping (see FIG. 1).

[6] = iv, brain AUC relative to plasma AUC, intravenous route, group 1-2 mg/kg, read-out: % AUC
[7] = iv, brain Cmax relative to plasma Cmax, intravenous route, group 1-2 mg/kg, read-out: % Cmax
[8] = po, 20 mg/kg, brain AUC relative to plasma AUC, 20 mg/kg oral route, read-out: % AUC
[9] = po, 20 mg/kg, brain Cmax relative to plasma Cmax, 20 mg/kg oral route, read-out: % Cmax
[10] = po, 200 mg/kg, brain AUC relative to plasma AUC, 200 mg/kg oral route, read-out: % AUC
[11] = po, 200 mg/kg, brain Cmax relative to plasma Cmax, 200 mg/kg oral route, read-out: % Cmax
[12] = plasma, 20 mg/kg oral route (low dose)
[13] = plasma, 200 mg/kg oral route (high dose)
[14] = intravenous route, group 1-2 mg/kg (Compound 4, 8: 1.00; 7: 1.20; 10: 2.00 mg/Kg), brain
[15] = intravenous route, group 1-2 mg/kg (Compound 4, 8: 1.00; 7: 1.20; 10: 2.00 mg/Kg), plasma
[16] = Cu (II) complex, pH 7.4, expecting time 2 h

Row | SMILES | Kp [1, 6] | Kp [1, 7] | Kp [1, 8] | Kp [1, 9] | bioavailability [1, 12] | bioavailability [1, 13] | Tmax ([1]; 20 mg/kg oral route, brain) | AUC ([1]; 20 mg/kg oral route, plasma) | Cmax ([1]; 20 mg/kg oral route, plasma) | Tmax ([1]; 20 mg/kg oral route, plasma) | half-life ([1]; 20 mg/kg oral route, plasma) | AUC ([1]; 200 mg/kg oral route, plasma) | Cmax ([1]; 200 mg/kg oral route, plasma) | Tmax ([1]; 200 mg/kg oral route, plasma) | Tmax [1, 14] | AUC [1, 15] | Cmax [1, 15] | Tmax [1, 15] | half-life [1, 15] | Cmax Brain ([1]; 20 mg/kg oral route, brain) | also measured
1 | CSc1cc(/C=N/O)nc2c1ccc1cccnc12 [Compound 4, 4-Methylsulfanyl-[1,10]phenanthroline-2-carbaldehyde oxime] | 1.27 | 1.33 | 2.76 | 0.742 | 1.01% | 19.1% | 15 min | 7.24 ng·h/mL | 20.8 ng/mL | 15 min | 18 min | 1380 ng·h/mL | 931 ng/mL | 30 min | 15 min | 36 ng·h/mL | 78.7 ng/mL | 15 min | 13.2 min | 15.40 ng/g | Kp [1, 10]: 1.12; Kp [1, 11]: 1.5; half-life ([1]; 20 mg/kg oral route, brain): 39.6 min; Tmax ([1]; 200 mg/kg oral route, brain): 30 min; half-life ([1]; 200 mg/kg oral route, brain): 56.4 min; half-life ([1]; 200 mg/kg oral route, plasma): 55.2 min; half-life [1, 14]: 23.4 min; Cmax Brain ([1]; 200 mg/kg oral route, brain): 1394.40 ng/g; Cmax Brain [1, 14]: 104.40 ng/g; minimal effective concentration [2]: 0.5 µM; minimal effective concentration [3]: 0.05 µM; Ability to complex Cu (II) (spectrum of mixture vs sum of individual spectra) [4]: none of the ligands are able to complex the Cu (II); Ability to complex Fe (III) (change in absorbance spectra) [5]: no change in the absorbance spectra
2 | CCN(CC)CCOc1cc(/C=N/O)nc2c1ccc1cccnc12 [Compound 10, 4-(2-Diethylamino-ethoxy)-[1,10]phenanthroline-2-carbaldehyde oxime] | 0.229 | 0.137 | 0.119 | 0.0876 | 12.5% | 77.6% | 60 min | 184 ng·h/mL | 149 ng/mL | 60 min | 240 min | 11500 ng·h/mL | 3950 ng/mL | 30 min | 4.8 min | 148 ng·h/mL | 136 ng/mL | 4.8 min | 486 min | 13.07 ng/g | Kp [1, 10]: 8.32; Kp [1, 11]: 1.96; Tmax ([1]; 200 mg/kg oral route, brain): 120 min; half-life ([1]; 200 mg/kg oral route, plasma): 227 min; half-life [1, 14]: 156 min; Cmax Brain ([1]; 200 mg/kg oral route, brain): 7751.80 ng/g; Cmax Brain [1, 14]: 18.7 ng/g; minimal effective concentration [2]: 0.5 µM; minimal effective concentration [3]: 0.05 µM; Formation constant ([4]; Cu (II) complex 1:1 (ML), pH 7.4, expecting time 2 h): 4.4 ± 0.6 · 10^6 l/mol; Dissociation grade [4, 16]: 3.8 ± 0.4; Stoichiometry [4, 16]: 1:1 (ML); ε approx. [4, 16]: ~400 L/mol/cm; Ability to complex Fe (III) (change in absorbance spectra) [5]: no change in the absorbance spectra
3 | CC(C)Sc1cc(/C=N/O)nc2c1ccc1cccnc12 [Compound 7, 4-Isopropylsulfanyl-[1,10]phenanthroline-2-carbaldehyde oxime] | 1.04 | 3.71 | 0.278 | 0.417 | 7.11% | 3.19% | 240 min | 378 ng·h/mL | 106 ng/mL | 18 min | 99.6 min | 1700 ng·h/mL | 1210 ng/mL | 30 min | 4.8 min | 319 ng·h/mL | 104 ng/mL | 60 min | 268 min | 19.62 ng/g | half-life ([1]; 20 mg/kg oral route, brain): 43.8 min; Cmax Brain [1, 14]: 386.10 ng/g; minimal effective concentration [3]: 0.05 µM; Ability to complex Cu (II) (spectrum of mixture vs sum of individual spectra) [4]: none of the ligands are able to complex the Cu (II); Ability to complex Fe (III) (change in absorbance spectra) [5]: no change in the absorbance spectra
